Source: patent US20200407683A1, “IN VITRO IMMUNE SYNAPSE SYSTEM AND METHOD OF IN VITRO […] RESPONSE USING THE SAME” (National Pingtung University of Science and Technology, priority 2018, published 2020)

System: IL-2
Assay: In vitro immune synapse system, immune adjuvant immunostimulation: IL-2 level
Type: cell-based, pig
Settings: 2 μg/well poly IC, in comparison to IL-18 (0.1 ng/well); Treg/APC system; FIG. 5; P<0.05
Experimental: In this Example, a commercial kit of porcine IL-2 and IL-10 was used for quantifying the IL-2 and IL-10 levels in the porcine cell supernatant. According to the steps of the specification provided in the kit, the standard liquid provided by the kit was diluted for later use, and a flow was described briefly below. Firstly, 100 μL of sample or diluted standard liquid was added into a 96-well plate and incubated for 1 hour. Next, 200 μL of biotinylated antibody reagent was added into the 96-well plate and incubated for another hour. […] Afterwards, 100 μL of stop solution was added to terminate the reaction in order to measure the absorbance. […]
Generally, the absorbance could be read by a commercial continuous spectrophotometer at a wavelength of 450/540 nm, and a standard curve was established by serially-diluted standard solution of various concentrations versus respective absorbances. Then, the cell cytokine concentration of each sample was calculated according to the regression equation of the standard curve, and a commercially statistical software (such as a SAS statistical program) was used to calculate significant difference between the means of all groups, as shown by the results of FIGS. 3A to 3B. […]

Question: poly-IC was tested. Which “IL-2 level in the immunological synapse” value did it give?
Answer: significantly improve
